Where two headings read alike, the source gives them in different places.

Series [1] concerns NO production in LPS-treated RAW 264.7 cells. Nature of the series: Inhibition of NO production (Griess reaction) in LPS-treated RAW 264.7 macrophages. The class given is cell-based, mouse. The method, then:
(§1) Mouse macrophage cell line RAW 264.7 was cultured in DMEM medium (cat. #21885-025, Gibco) supplemented with 10% heat inactivated fetal bovine serum (cat. #10270-106, Gibco) and 1% penicillin-streptomycin (cat. #15070-063, Gibco). Cells were cultured in 37° C. and 5% CO2. Each compound was diluted in Carbowax™ 400+10% ethanol (cat. #1.00983, Sigma), used also as control solvent. Final concentration in culture was 0.1% v/v carbowax and 0.01% v/v ethanol. RAW 264.7 macrophages were activated using 100 ng/mL lipopolysaccharide (LPS) (L2630, Sigma). In IC50 determination experiments, macrophages were pre-treated for 1 h with the respective compound prior to LPS stimulation.
30×104 RAW 264.7 mouse macrophages were plated in 24-well plates over-night with 0.5 mL complete medium. Cells were pretreated for 1 h with the respected compound concentration and then stimulated with 100 ng/mL LPS (L2630, Sigma) for 48 h. The amount of nitrite, an oxidative product of NO, was measured in culture supernatant of each sample using the Griess reaction. 100 μL of supernatant was mixed with 100 μl of sulfanilamide solution (1% sulfanilamide in 5% H3PO4) and incubated for 5 min at room temperature. Then, 100 μL of NED solution (0.1% N-1-naphtylethylenediamine dihydrochlorite in H2O) was added and the absorbance was measured in an automated microplate reader (Infinate 200 PRO, Tecan) at 540 nm. Nitrite concentration was calculated using a sodium nitrite standard curve. All incubations were performed in the dark.
(§2) All data are presented as mean±SEM and as percentage in case of IC50 evaluation. Statistical analysis was performed using Graphpad Prism 7.0. D'Agostino & Pearson, Shapiro Wilk and KS tests were used to evaluate normality. In case of normality, one-way ANOVA was performed, whereas in all other cases the non-parametric Kruskal-Wallis test was used. Differences with a P value <0.05 are considered significant (*indicates P<0.05, **indicates P<0.01, ***indicates P<0.001).

The test system of a further series is RAW 264.7 macrophages. Briefly: MTT cytotoxicity / proliferation assay in RAW 264.7 macrophages. It is filed as cell-based, mouse. Conditions: for Significant cytotoxicity at concentrations above: RAW 264.7, values given in nM. As for the experimental part: as §1
3.5×103 RAW 264.7 mouse macrophages were seeded in 96-well plate and cultured overnight. Cells were subsequently treated with the respective compound concentration and incubated for 24, 48 and 72 h. Number of cells was measured prior to treatment and used as normalisation control. Thiazolyl Blue Tetrazolium Bromide (MTT) (A2231.001, Applichem) was added to the cells in a final concentration of 0.5 mg/mL and then cells were incubated at 37° C. and 5% CO2 for 4 h. The supernatant was discarded and cells were lysed with 2-propanol (33539, Honeywell) with 0.4% HCl (30721, Sigma). The absorbance of each sample was measured in an automated microplate reader (Infinite 200 PRO, Tecan) at 600 nm. The average OD of each treated sample was normalized to the OD of the control sample and statistical analysis was performed using Graphpad Prism 7.0.
as §2

[2] abbreviates: Mus musculus, RAW264.7, LPS (100 ng/mL)-treated RAW 264.7, 1 h pre-treatment, 48 h, vs Carbowax 400 control, mean ± SEM, read-out: IC50 Inhibition of NO production.
The mark [3] stands for this setting: Mus musculus, RAW264.7, LPS-treated RAW 264.7, values given in nM, read-out: IC50 for inhibition of NO production (anti-inflammatory activity).
Setting [4] is: MTT, RAW 264.7, 72 h of treatment, concentration above which cytotoxic.

Turning to `CC[C@@H]1O[C@@H]2C[C@H]3O[C@H]3C[C@H](C=C=CBr)O[C@@H]2C[C@H]1Br` [Compound a1, Thuwalallene A], in series [1] (LPS (100 ng/mL)-treated RAW 264.7, 1 h pre-treatment, 48 h, vs Carbowax 400 control, mean ± SEM, read-out: IC50 Inhibition of NO production), the IC50 worked out at 26000 nM.

On to `CC[C@@H]1O[C@@H]2C/C=C\C[C@H](C=C=CBr)O[C@@H]2CC1Br` (stereo partly shown) [Compound a3, Thuwalallene C], for which the IC50 in series [1] (setting [2]) stood at 4180 nM.

On to `C#C/C=C\C[C@@H]1O[C@@H]2C[C@@H](Br)[C@H](CC)O[C@@H]2C[C@@H]1Br` [Compound a4, Thuwalenyne A], for which the “Anti-inflammatory activity (in words)” value in series [1] (LPS-treated RAW 264.7, all concentrations tested) is recorded as “did not exhibit anti-inflammatory activity”. Further, the “Cytotoxicity (in words)” value with RAW 264.7 macrophages is recorded as “did not exhibit anti-inflammatory activity or cytotoxicity”. The “Cytotoxicity (at 72 h)” value in the series on RAW 264.7 macrophages (mouse, 72 h) was greater than 62.5 µM.

For the compound `CC(C)(O)C1CC[C@](C)([C@@H](O)CC[C@](C)(O)[C@H]2CC[C@H]3O[C@@H]([C@]4(C)CC[C@@H](Br)C(C)(C)O4)CC[C@]3(C)O2)O1` (stereo partly shown) [Compound a10, thyrsiferol], the IC50 in series [1] (setting [2]) and in series [1] (setting [3]) was 4.39 nM each time. For the same compound, the “Cytotoxicity (at 72 h)” value in the series with RAW 264.7 macrophages (setting [4]) was greater than 0.1 µM. For the same compound, the “Significant cytotoxicity at concentrations above” value with RAW 264.7 macrophages (MTT) is listed as “above 100 nM”.

Turning to `CC(=O)OC(C)(C)C1CC[C@](C)([C@@H](O)CC[C@](C)(O)[C@H]2CC[C@H]3O[C@@H]([C@]4(C)CC[C@@H](Br)C(C)(C)O4)CC[C@]3(C)O2)O1` (stereo partly shown) [a11, 23-acetyl-thyrsiferol], the IC50 in series [1] (setting [2]) and in series [1] (setting [3]) was 2.63 nM in each case. Also, the “Cytotoxicity (at 72 h)” value with RAW 264.7 macrophages (setting [4]) is greater than 0.01 µM. In the series with RAW 264.7 macrophages (MTT), the “Significant cytotoxicity at concentrations above” value was “above 10 nM”.

Values taken from patent publication US20220112208A1, “COMPOUNDS WITH ANTIINFLAMMATORY ACTIVITY AND METHODS OF USE THEREOF” (King Abdullah University of Science and Technology, priority 2020, published 2022).
